Where two headings read alike, the source gives them in different places.
What was measured:
[1] = log P determination (neutral / acidic, pH 2.3)
Uromyces appendiculatus = assay: Uromyces test (beans)/protective; type: in vivo; conditions: 240 h, 100 ppm active substance, protective, evaluation 10 days after inoculation, read-out: degree of effectiveness
Protocol: Uromyces Test (Beans)/Protective [table] To prepare a suitable active substance composition, 1 part by weight of active substance is mixed with the given amounts of solvents and emulsifier and the concentrate is diluted to the desired concentration using water. For the testing of protective effectiveness, young plants are sprayed with the active substance composition in the application rate given. After the spray coating has been dried on, the plants are inoculated with an aqueous suspension of the spores of the bean rust pathogen Uromyces appendiculatus and then remain in an incubation chamber at approximately 20° C. and 100% relative humidity for 1 day. The plants are then placed in a greenhouse at approximately 21° C. and a relative humidity of approximately 90%. Evaluation is carried out 10 days after the inoculation. In this connection, 0% means a degree of effectiveness corresponding to that of the control, while a degree of effectiveness of 100% means that no infestation is observed.

[2] = test system: Blumeria graminis f.sp. hordei; assay: Blumeria graminis test (barley)/protective; type: in vivo; conditions: 168 h, 1000 ppm active substance, protective, evaluation 7 days after inoculation, read-out: degree of effectiveness
Protocol: Blumeria graminis Test (Barley)/Protective
(§1) To prepare a suitable active substance composition, 1 part by weight of active substance is mixed with the given amounts of solvent and emulsifier and the concentrate is diluted to the desired concentration using water.
For the testing of protective effectiveness, young plants are sprayed with the active substance composition in the application rate given.
After the spray coating has been dried on, the plants are dusted with spores of Blumeria graminis f.sp. hordei.
The plants are placed in a greenhouse at a temperature of approximately 20° C. and a relative humidity of approximately 80%, in order to encourage the development of mildew pustules.
Evaluation is carried out 7 days after the inoculation. In this connection, 0% means a degree of effectiveness corresponding to that of the control, while a degree of effectiveness of 100% means that no infestation is observed.

Pyrenophora teres = Pyrenophora teres test (barley)/protective; type: in vivo; conditions: 500 ppm active substance, protective, evaluation 7-9 days after inoculation, read-out: degree of effectiveness
Protocol: Pyrenophora teres Test (Barley)/Protective
as §1
For the testing of protective effectiveness, young barley plants are sprayed with the active substance composition in the application rate given. 1 day after the treatment, the plants are inoculated with an aqueous suspension of the spores of Pyrenophora teres and then remain at 100% relative humidity and 20° C. for 48 h. Subsequently, the plants are placed in a greenhouse at 80% relative humidity and a temperature of 20° C.
Evaluation is carried out 7-9 days after the inoculation. In this connection, 0% means a degree of effectiveness corresponding to that of the control, while a degree of effectiveness of 100% means that no infestation is observed.

Sphaerotheca fuliginea = assay: Sphaerotheca test (cucumber)/protective; type: in vivo; conditions: Podosphaera fuliginea, 168 h, 100 ppm active substance, protective, evaluation 7 days after inoculation, read-out: degree of effectiveness
Protocol: Sphaerotheca Test (Cucumber)/Protective [table] To prepare a suitable active substance composition, 1 part by weight of active substance is mixed with the given amounts of solvents and emulsifier and the concentrate is diluted to the desired concentration using water. For the testing of protective effectiveness, young plants are sprayed with the active substance composition in the application rate given. After the spray coating has been dried on, the plants are inoculated with an aqueous suspension of spores of Sphaerotheca fuliginea. The plants are then placed in a greenhouse at approximately 23° C. and a relative humidity of approximately 70%. Evaluation is carried out 7 days after the inoculation. In this connection, 0% means a degree of effectiveness corresponding to that of the control, while a degree of effectiveness of 100% means that no infestation is observed.

[3] = test system: Puccinia recondita var. tritici; assay: Puccinia test (wheat)/protective; type: in vivo; conditions: 240 h, 1000 ppm active substance, protective, evaluation 10 days after inoculation, read-out: degree of effectiveness
Protocol: Puccinia Test (Wheat)/Protective
as §1
For the testing of protective effectiveness, young plants are sprayed with the active substance composition in the application rate given. After the spray coating has been dried on, the plants are sprayed with a suspension of the conidia of Puccinia recondita var. tritici. The plants remain in an incubation chamber at 20° C. and 100% relative humidity for 48 hours.
The plants are then placed in a greenhouse at a temperature of approximately 20° C. and a relative humidity of 80%, in order to encourage the development of rust pustules.
Evaluation is carried out 10 days after the inoculation. In this connection, 0% means a degree of effectiveness corresponding to that of the control, while a degree of effectiveness of 100% means that no infestation is observed.

Phakopsora pachyrhizi = assay: Phakopsora test (soya)/protective; type: in vivo; conditions: 264 h, 100 ppm active substance, protective, evaluation 11 days after inoculation, read-out: degree of effectiveness
Protocol: Phakopsora Test (Soya)/Protective
as §1
(§2) For the testing of protective effectiveness, young plants are sprayed with the active substance composition in the application rate given. After the spray coating has been dried on, the plants are inoculated with an aqueous suspension of the spores of Phakopsora pachyrhizi and then remain in an incubation chamber at approximately 20° C. and 80% relative humidity for 1 day.
Evaluation is carried out 11 days after the inoculation. In this connection, 0% means a degree of effectiveness corresponding to that of the control, while a degree of effectiveness of 100% means that no infestation is observed.

Alternaria solani = assay: Alternaria test (tomato)/protective; type: in vivo; conditions: 168 h, 500 ppm active substance, protective, evaluation 7 days after inoculation, read-out: degree of effectiveness
Protocol: Alternaria Test (Tomato)/Protective [table] To prepare a suitable active substance composition, 1 part by weight of active substance is mixed with the given amounts of solvent and emulsifier and the concentrate is diluted to the desired concentration using water. For the testing of protective effectiveness, young tomato plants are sprayed with the active substance composition in the application rate given. 1 day after the treatment, the plants are inoculated with a suspension of the spores of Alternaria solani and then stand at 100% relative humidity and 20° C. for 24 h. Subsequently, the plants stand at 96% relative humidity and a temperature of 20° C. Evaluation is carried out 7 days after the inoculation. In this connection, 0% means a degree of effectiveness corresponding to that of the control, while a degree of effectiveness of 100% means that no infestation is observed.

Cochliobolus miyabeanus = assay: Cochliobolus test (rice)/protective; type: in vivo; conditions: 250 ppm active substance, protective, evaluation 4 days after inoculation
Protocol: Cochliobolus Test (Rice)/Protective
as §1
as §2, with “Cochliobolus miyabeanus” for “Phakopsora pachyrhizi”, “25°” for “20°”, “100%” for “80%”
Evaluation is carried out 4 days after the inoculation. In this connection, 0% means a degree of effectiveness corresponding to that of the control, while a degree of effectiveness of 100% means that no infestation is observed.

## Cc1cc(Oc2nc(C3CC3)ns2)c(C)cc1/N=C/N1CCCCC1 [Compound 3, 4-[(3-Cyclopropyl-1,2,4-thiadiazol-5-yl)oxy]-2,5-dimethyl-N-[(1E)-piperidin-1-ylmethyl-idene]aniline]
[1]
  log P acidic: 1.75

## Cc1cc(Oc2nc(C3CC3)ns2)c(C)cc1/N=C/N1CCSCC1 [Compound 4, 4-[(3-Cyclopropyl-1,2,4-thiadiazol-5-yl)oxy]-2,5-dimethyl-N-[(1E)-thiomorpholin-4-ylmethyl-idene]aniline]
[1]
  log P acidic: 1.73

## Cc1cc(Oc2nc(C3(Cl)CC3)cs2)c(C)cc1/N=C/N1CCCCC1 [Compound 6, 4-{[4-(1-Chlorocyclopropyl)-1,3-thiazol-2-yl]oxy}-2,5-dimethyl-N-[(1E)-piperidin-1-ylmethyl-idene]aniline]
[1]; neutral
  log P neutral: 5.49

## CCN(C)C=Nc1cc(C)c(Oc2nc(C3(C)CC3)ns2)cc1C [Compound 9, N′-(2,5-Dimethyl-4-{[3-(1-methylcyclopropyl)-1,2,4-thiadiazol-5-yl]oxy}phenyl)-N-ethyl-N-methylimidoformamide]
physchem; pH 2.3
  logP: 1.94
Uromyces appendiculatus
  pest or weed control at 100 ppm: ≥ 70%
[2]
  pest or weed control at 1000 ppm: ≥ 70%
Pyrenophora teres
  pest or weed control at 500 ppm: ≥ 70%
Sphaerotheca fuliginea
  pest or weed control at 100 ppm: ≥ 70%
[3]
  pest or weed control at 1000 ppm: ≥ 70%
Phakopsora pachyrhizi
  pest or weed control at 100 ppm: ≥ 80%
Alternaria solani
  pest or weed control at 500 ppm: ≥ 70%

## Cc1cc(Oc2nc(C3(C)CC3)ns2)c(C)cc1/N=C/N1CCCCC1 [Compound 11, 5-Dimethyl-4-{[3-(1-methylcyclopropyl)-1,2,4-thiadiazol-5-yl]oxy}-N-[(1E)-piperidin-1-yl-methylidene]aniline]
[1]
  log P acidic: 2.13

## CCN(C)C=Nc1cc(C)c(Oc2nc(C3CC3C)ns2)cc1C (stereo not shown) [Compound 14, N′-(2,5-Dimethyl-4-{[3-(2-methylcyclopropyl)-1,2,4-thiadiazol-5-yl]oxy}phenyl)-N-ethyl-N-methylimidoformamide]
physchem; pH 2.3
  logP: 1.96
Uromyces appendiculatus
  pest or weed control at 100 ppm: ≥ 70%
[2]
  pest or weed control at 1000 ppm: ≥ 70%
Pyrenophora teres
  pest or weed control at 500 ppm: ≥ 70%
Sphaerotheca fuliginea
  pest or weed control at 100 ppm: ≥ 70%
[3]
  pest or weed control at 1000 ppm: ≥ 70%
Phakopsora pachyrhizi
  pest or weed control at 100 ppm: ≥ 80%
Alternaria solani
  pest or weed control at 500 ppm: ≥ 70%

## Cc1cc(Oc2nc(C3CC3C)ns2)c(C)cc1N=CN(C)C(C)C (stereo not shown) [Compound 15, N′-(2,5-Dimethyl-4-{[3-(2-methylcyclopropyl)-1,2,4-thiadiazol-5-yl]oxy}phenyl)-N-methyl-N-(1-methylethyl)imidoformamide]
physchem; pH 2.3
  logP: 1.74
Uromyces appendiculatus
  pest or weed control at 100 ppm: ≥ 70%
[2]
  pest or weed control at 1000 ppm: ≥ 70%
Pyrenophora teres
  pest or weed control at 500 ppm: ≥ 70%
Sphaerotheca fuliginea
  pest or weed control at 100 ppm: ≥ 70%
[3]
  pest or weed control at 1000 ppm: ≥ 70%
Phakopsora pachyrhizi
  pest or weed control at 100 ppm: ≥ 80%
Alternaria solani
  pest or weed control at 500 ppm: ≥ 70%

## CCN(C)C=Nc1cc(C)c(Oc2nc(C3(C)CC3)c(Cl)s2)cc1C [Compound 21, N′-(4-{[5-Chloro-4-(1-methylcyclopropyl)-1,3-thiazol-2-yl]oxy}-2,5-dimethylphenyl)-N-ethyl-N-methylimidoformamide]
physchem
  logP: 6
physchem; pH 2.3
  logP: 1.97
Uromyces appendiculatus
  pest or weed control at 100 ppm: ≥ 70%
[2]
  pest or weed control at 1000 ppm: ≥ 70%
Pyrenophora teres
  pest or weed control at 500 ppm: ≥ 70%
Sphaerotheca fuliginea
  pest or weed control at 100 ppm: ≥ 70%
[3]
  pest or weed control at 1000 ppm: ≥ 70%
Phakopsora pachyrhizi
  pest or weed control at 100 ppm: ≥ 80%
Alternaria solani
  pest or weed control at 500 ppm: ≥ 70%

## Cc1cc(Oc2nc(C3(C)CC3)cs2)c(C)cc1/N=C/N1CCCCC1 [Compound 23, 2,5-Dimethyl-4-{[4-(1-methylcyclopropyl)-1,3-thiazol-2-yl]oxy}-N-[(1E)-piperidin-1-ylmethyl-idene]aniline]
[1]
  log P acidic: 2.05

## CCN(C)C=Nc1cc(C)c(Oc2nc(C3(C)CC3(Cl)Cl)ns2)cc1C (stereo not shown) [Compound 25, N′-(4-{[3-(2,2-Dichloro-1-methylcyclopropyl)-1,2,4-thiadiazol-5-yl]oxy}-2,5-dimethylphenyl)-N-ethyl-N-methylimidoformamide]
Cochliobolus miyabeanus
  degree of effectiveness: ≥ 80%
physchem; pH 2.3
  logP: 2.03
Uromyces appendiculatus
  pest or weed control at 100 ppm: ≥ 70%
Pyrenophora teres
  pest or weed control at 500 ppm: ≥ 70%
Sphaerotheca fuliginea
  pest or weed control at 100 ppm: ≥ 70%
Phakopsora pachyrhizi
  pest or weed control at 100 ppm: ≥ 80%
Alternaria solani
  pest or weed control at 500 ppm: ≥ 70%

## [5-Chloro-4-(1-methylcyclopropyl)-1,3-thiazol-2-yl]oxy-2,5-dimethylaniline
other
  log P (pH 2.3): 4.13
